Entries after “also recorded” stand apart in the source; their conditions may differ.
Legend:
[1] = tested on: cells expressing Wt-CFTR and F508del-CFTR; assay: Cell toxicity observed in treated cells; details: in the used concentration (300 μM AEBSF; 10 μM PF-429242)
Method: The CFBE41o−cells purchased from Professor D. C. Gruenert (San Francisco, Calif., U.S.A.) were human bronchial epithelial cells endogenously expressing the F508del-CFTR obtained from a CF patient homozygous for the F508del mutation [51;52]. The cells used in experiments were the transduced CFBE41o−/WT also called CFBE41o−/corrected (CFBE41o−/corr) and CFBE41o−/F508del cells, and were cultured as previously described. These cells will be also called cells expressing Wt-CFTR and cells expressing F508del-CFTR in the manuscript. Cell culture media and supplements were purchased from Lonza (Basel, Switzerland) and CliniSciences (Nanterre, France). To inhibit ATF6 activation, cells were incubated with 300 μM of the serine protease inhibitor 4-(2-Aminoethyl) benzenesulfonyl fluoride hydrochloride (AEBSF) purchased from Servilab. In some experiments, ATF6 activation was blocked by the use of 10 μM PF-429242 (4-[(Diethylamino)methyl]-N-[2-(2-methoxyphenyl)ethyl]-N-(3R)-3-pyrrolidinylbenzamide, from Tocris).

ATF6 = ATF6 expression and activation by western blot (total lysates, nuclear fractions) in cells expressing F508del-CFTR; format: cell-based, human; details: 300 μM AEBSF
Method: (§1) The CFBE41o−cells purchased from Professor D. C.
(§2) Untreated or AEBSF treated cells were rinsed twice with cold PBS. For total cell lysate preparation, cells were lysed in RIPA buffer (25 mM Tris-HCl pH 7.5, 150 mM NaCl, 1% Triton X-100, 1% Na-Deoxycholate, 0.1% SDS, 10 mM iodoacetamide, 100 μM PMSF) supplemented with fresh protease-inhibitor cocktail (Complete tablets—EDTA free, Roche, Basel, Switzerland) added extemporaneously at a final concentration of 40 μl/ml (30 min on ice). Lysates were centrifugated (15 min, 16000 g, 4° C.). For nuclear preparation, cells were washed twice with cold PBS, and lysed with buffer A (10 mM HEPES pH 7.9, 1.5 mM MgCl2, 10 mM KCl, 2 mM EDTA, 0.5 mM DTT, 0.20% NP40 and protease-inhibitor cocktail) during 15 min at 4° C. Lysates were then centrifuged (1,500×g, 2 min, 4° C.) and the supernatants (cytosolic fraction) were removed in a new tube. The pellet was washed twice in buffer B (Buffer A without NP40) and lysed with buffer C (20 mM HEPES pH 7.9, 1.5 mM MgCl2, 450 mM KCl, 2 mM EDTA, 2 mM EGTA, 0.5 mM DTT, 25% Glycerol and protease-inhibitor cocktail) during 1 h vortexing 2200 rpm. Lysates were then centrifuged (14,000×g, 10 min, 4° C.) and supernatant (nuclear fraction) was removed in a new tube. Protein concentrations were determined using Lowry's methodology with the bovine serum albumin used as a standard.
For each sample equal amount of total or nuclear proteins was loaded on a polyacrylamide gel and resolved by SDS-PAGE (10%). Samples were then transferred onto a PVDF membrane (EMD Millipore, Billerica, Mass., United States). After blotting, membranes were blocked with 5% (w/v) non-fat dried skimmed milk in PBS-0.1% Tween20 (PBST). Blots were then probed overnight at 4° C. with the primary antibodies listed hereafter: Rabbit polyclonal anti-ATF6 antibody (#09-069, EMD Millipore), Rabbit polyclonal anti-S1P antibody (H-300) (#SC-20757, SantaCruz Biotechnology), Rabbit polyclonal anti-GRP78 antibody (H-129) (#SC-13968, SantaCruz Biotechnology). Membranes were further incubated 1 h at room temperature with the appropriate horseradish peroxidase (HRP) conjugated secondary antibody diluted in PBST (1/20,000): Goat anti-rabbit (#A0545, Servilab). Blots were developed by enhanced chemiluminescence kit (ECL Plus, GE Healthcare) and analyzed using Chemi-Smart 5100 ECL imaging system (Vilber Lourmat). The relative intensity of each band was quantified by densitometry using BIO-1D software (Vilber Lourmat). Each value was normalized by blue coomassie staining or the G3PDH signal obtained in the same lane on the same blot probed with mouse monoclonal antibody anti-G3PDH (#H86504M, Meridian Life Science®, Inc.) diluted in PBST (1/30,000).

[2] = tested on: cells expressing F508del-CFTR; assay: 2-DE and mass spectrometry of differentially expressed proteins after treatment; format: cell-based, human; details: AEBSF treated vs untreated cell lysates, above 2 fold, MS identification
Method: 100 μg of total proteins from untreated or AEBSF treated cells were used for experiments. Each protein sample was first diluted in DeStreak Rehydration Solution (GE Healthcare, Chalfont St Giles, UK) which contains optimized concentrations of urea, thiourea, CHAPS, DeStreak Reagent and appropriate IPG buffer. Passive rehydration of Immobiline DryStrip gels (7 cm, pH 3-10 NL, GE Healthcare) with samples was performed during 8 hours. Once rehydration completed, Immobiline DryStrip gel are transferred in the Manifold on Ettan IPGphor 3 (GE Healthcare) for first dimension isoelectric focusing (IEF). IEF protocol used is divided in five steps: 1—Step 300 V, 200 Vhr; 2—Grad 1000 V, 300 Vhr; 3—Grad 5000 V, 4500 Vhr; 4—Step 5000V, 9000 Vhr; 5—Step 300V, 12-15 h. Second-dimension separation is performed immediately after IEF is completed. Immobiline DryStrip gels are equilibrated (15 min at room temperature) in two SDS equilibration buffers (6 M urea, 75 mM Tris-HCl pH=8.8, 30% Glycerol, 2% SDS, 0.0002% bromophenol blue+DTT or iodoacetamide) before SDS-PAGE. Electrophoresis was performed with lab-cast gels (1 mm, Bis-Tris 10%) in 1× Tris-Glycine-SDS buffer (BioRad, Hercules, Calif., USA) at 120 V for 2 h 30. […] Gel alignment, spot detection and quantification were done using the PDQuest software (PDQuest Basic-8.0.1, BioRad). […]

F508del-CFTR [3] = assay: Cell surface detection of CFTR in BHK cells expressing HA-tagged F508del-CFTR; format: cell-based, hamster; details: for presence of F508del-CFTR within membranes: after treatment of cells expressing F508del-CFTR
Method: BHK cells stably expressing WT-CFTR or F508del-CFTR were graciously given by Dr. John W. Hanrahan (McGill University). A 3-Haemaglutinin (HA)-epitope tag was inserted in the fourth extracellular loop of CFTR in these cell lines. Cells were cultured in Dulbecco's modified Eagle medium (Lonza, Switzerland) supplemented with 10% fetal bovine serum. Cells were washed three times with cold 1×PBS (Eurobio, France) plus bovine serum albumine (BSA, 0.5%) and incubated 1 h at 4° C. with an anti-HA antibody (BioLegend, USA) diluted (1/250) in 1×PBS plus 0.5% BSA. Cells were washed three times with cold 1×PBS, scraped and centrifugated (300×g, 3 min, 4° C.). Cells pellets were suspended in RIPA buffer for 30 min on ice, centrifuged (16000×g, 15 min, 4° C.) and total protein concentration of supernatant was determined using Lowry's method, using BSA as a standard. Protein G magnetic beads (Thermo Fisher Scientific, USA) were equilibrated with cold RIPA buffer. Lysates were then incubated with the magnetic beads (100 μl of magnetic beads per mg of total protein) at 4° C. during for 2 h. Beads were then rinsed three times in cold RIPA buffer and proteins were eluted with 2× sample buffer containing 2-mercaptoethanol (20 min, 37° C.). […] Membrane was blocked with 5% (w/v) dried skimmed milk in PBS (0.1%) with Tween20, probed overnight at 4° C. with the anti-HA antibody (1/500) in 5% non-fat dried milk in PBST. Membranes were further washed and incubated 1 h at RT with HRP conjugated anti-mouse antibody (1/20000; Santa Cruz Biotechnology, USA). Blots were developed by enhanced chemiluminescence kit (ECL Plus, GE Healthcare, USA) and analyzed using Chemi-Smart 5100 ECL imaging system (Vilber Lourmat, Germany).

[4] = tested on: S1P-mediated cleavage of ATF6; details: from references [69], [78]; cited from earlier work
S1P = S1P expression by western blot in cells expressing F508del-CFTR; format: cell-based, human; details: 300 μM AEBSF, total cell lysates
Method: as §1
as §2, with “The pellet was washed twice in buffer B (Buffer A without NP40) and lysed with buffer C (20 mM HEPES pH 7.9, 1.5 mM MgCl2, 450 mM KCl, 2 mM EDTA, 2 mM EGTA, 0.5 mM DTT, 25% Glycerol and protease-inhibitor cocktail) during 1 h vortexing 2200 rpm. Lysates were then centrifuged (14,000×g, 10 min, 4° C.) and supernatant (nuclear fraction) was removed in a new tube.” left out
(§3) For each sample equal amount of total or nuclear proteins was loaded on a polyacrylamide gel and resolved by SDS-PAGE (10%). […] Blots were developed by enhanced chemiluminescence kit (ECL Plus, GE Healthcare) and analyzed using Chemi-Smart 5100 ECL imaging system (Vilber Lourmat). The relative intensity of each band was quantified by densitometry using BIO-1D software (Vilber Lourmat). […]

BiP = BiP expression by western blot in cells expressing F508del-CFTR (UPR reporter); format: cell-based, human; details: 300 μM AEBSF, total cell lysates
Method: as §1
as §2, with “The pellet was washed twice in buffer B (Buffer A without NP40) and lysed with buffer C (20 mM HEPES pH 7.9, 1.5 mM MgCl2, 450 mM KCl, 2 mM EDTA, 2 mM EGTA, 0.5 mM DTT, 25% Glycerol and protease-inhibitor cocktail) during 1 h vortexing 2200 rpm. Lysates were then centrifuged (14,000×g, 10 min, 4° C.) and supernatant (nuclear fraction) was removed in a new tube.” left out
as §3

F508del-CFTR [5] = assay: Whole-cell patch-clamp of CFTR Cl- channel activity in CFBE41o-/F508del cells; format: cell-based, human; details: for increase of Cl- currents in treated vs untreated F508del-CFTR cells: pA/pF values at +80 mV
Method: as §1
Whole-cell patch-clamp recordings were obtained with the patch clamp system Port-a-Patch® (Nanion Technologies GmbH, Germany) as previously described [74;75]. Untreated or AEBSF treated cells were incubated with the external solution (140 mM NaCl, 2 mM CaCl2, 1 mM MgCl2, 10 mM Hepes, 5 mM D-glucose monohydrate, pH 7.4, 298 mOsmol) before recording. The internal solution used was 50 mM CsCl, 10 mM NaCl, 60 mM Cs-Fluoride, 20 mM EGTA, 10 mM Hepes/CsOH, and 5 mM Mg-ATP (Mg salt); pH 7.2; 285 mOsmol. CFTR activation and CFTR inhibition was done using the CFTR-activator ([…] and […] both from Sigma) and the CFTR-inhibitor ([…], Sigma) solution respectively, that were added to the external solution. Voltage steps (100 ms) from a holding potential of −80 mV, from −80 mV to +80 mV (10 mV increments) were applied. Data were captured using the Patchmaster program (Nanion Technologies GmbH, Germany) and currents normalized by membrane capacitances to remove variability due to differences in the cell sizes. Results were presented as graphic representations of I/V relationship and as bar graphs after statistical analysis of the normalized values, at +80 mV.

Row | SMILES | cell toxicity [1] | ATF6 activation (cleaved form in nuclear fraction) compared to the zero time point (ATF6; nuclear fractions) | cleaved 50 kDa ATF6 in nuclear fraction, treated vs untreated cells for each time point (ATF6; nuclear fractions) | full length ATF6 expression compared to the zero time point (ATF6; total cell lysates) | full length ATF6 expression, treated vs untreated cells for each time point (ATF6; total cell lysates) | differentially expressed proteins after treatment [2] | mature form of CFTR (C band, 170 kDa) at the cell surface (F508del-CFTR [3]; BHK cells expressing HA-tagged F508del-CFTR, anti-HA pull-down and immunoblot) | presence of F508del-CFTR within membranes (F508del-CFTR [3]) | inhibition of ATF6 cleavage upon ER stress [4] | S1P expression over time in treated cells (S1P; 0.5, 1, 2, 4 or 8 hours, CFBE41o-/F508del cells, hydrochloride) | S1P expression, treated vs untreated cells for each time point (S1P; F508del-CFTR cells) | BiP expression, treated vs untreated cells for each time point (BiP) | BiP expression over time in treated cells (BiP; over time) | increase of Cl- currents in treated vs untreated F508del-CFTR cells (F508del-CFTR [5]; 300 μM AEBSF, 8 hours) | fold increase of the F508del-CFTR's Cl- function (F508del-CFTR [5]; 300 μM AEBSF, 8 hours, vs untreated cells) | mean cell Cl- currents (F508del-CFTR [5]; CFBE41o-/F508del cells, 300 μM AEBSF, 8 hours, at +80 mV, untreated 32.98±14.71, Wt-CFTR 118.8±21.09) | increase of Cl- currents in treated vs untreated F508del-CFTR cells (F508del-CFTR [5]; 10 μM PF-429242, 8 hours) | mean cell Cl- currents (function of F508del-CFTR) (F508del-CFTR [5]; CFBE41o-/F508del cells, 10 μM PF-429242, 8 hours, at +80 mV, untreated 32.98±14.71)
1 | Cl.NCCc1ccc(S(=O)(=O)F)cc1 [AEBSF, 4-(2-Aminoethyl) benzenesulfonyl fluoride hydrochloride] | No obvious cell toxicity was observed | significant decreases at the 2 and 4 hours treatment | significant decreased expression of the 50 kDa form of ATF6, from 1 to 8 hours | significant increased expression was observed after 4 and 8 hours of treatment | significant decreases after 0.5, 1 and to 2 hours and a significant increase after 8 hours | HNRNPH1 and HNRH3 were decreased and that PDIA3 (Grp58), HSP7C, GRP75 and HSP71 were increased | only observed after AEBSF treatment | increase the presence of F508del-CFTR within membranes | inhibit the proteolysis of ATF6 | significance was only observed at the 2 hours time point; also recorded: no significant variation was observed over time except for the 2 hours time point | no significant difference | Significant decreases at the 4 and 8 hours time points | significant decrease of BiP expression was observed after 4 hours of treatment | +153% | 2.5 fold | 83.42±11.51 pA/pF | – | –
2 | CCN(CC)Cc1ccc(C(=O)N(CCc2ccccc2OC)[C@@H]2CCNC2)cc1 [PF-429242, 4-[(Diethylamino)methyl]-N-[2-(2-methoxyphenyl)ethyl]-N-(3R)-3-pyrrolidinylbenzamide] | – | – | – | – | – | – | – | increase the presence of F508del-CFTR within membranes | efficiently blocks the S1P-mediated cleavage of ATF6 upon ER stress | – | – | – | – | – | – | – | +152% | 82.67±22.26 pA/pF
